Assays:
[1] = test system: soybean; assay: Test B pre/postemergence soybean; type: in vivo, Glycine max
Procedure, shortened: (§1)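 Herbicidal effect was estimated by eye on a ten-point control scale after plants spent twelve to sixteen days in a greenhouse following soil or foliar treatment. Foliar sprays targeted plants at one to four leaves; all doses were formulated in a non-phytotoxic solvent with surfactant.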

[2] = test system: wheat; assay: Test B pre/postemergence wheat; type: in vivo, Triticum aestivum
Procedure, shortened: as §1

[3] = test system: morningglory; assay: Test B pre/postemergence morningglory; type: in vivo, Ipomoea hederacea
Procedure, shortened: as §1

[4] = test system: blackgrass; assay: Test B pre/postemergence blackgrass; type: in vivo, Alopecurus myosuroides
Procedure, shortened: as §1

[5] = test system: purple nutsedge; assay: Test B pre/postemergence purple nutsedge; type: in vivo, Cyperus rotundus
Procedure, shortened: as §1

[6] = test system: velvetleaf; assay: Test B pre/postemergence velvetleaf; type: in vivo, Abutilon theophrasti
Procedure, shortened: as §1

[7] = test system: surinam grass; assay: Test B pre/postemergence surinam grass; type: in vivo, Brachiaria decumbens
Procedure, shortened: as §1

[8] = test system: smallflower flatsedge; assay: Test B flood test smallflower flatsedge; type: in vivo, Cyperus difformis
Procedure, shortened: (§2)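 Plants were grown to the 2-leaf stage before treatment with test chemical, then held in a greenhouse for twelve to sixteen days. Injury was visually rated against untreated controls on a 0–10 scale, where 0 is no effect and 10 is complete control.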

[9] = test system: wild oat; assay: Test B pre/postemergence wild oat; type: in vivo, Avena fatua
Procedure, shortened: as §1

[10] = test system: giant foxtail; assay: Test B pre/postemergence giant foxtail; type: in vivo, Setaria faberii
Procedure, shortened: as §1

[11] = test system: duck salad; assay: Test B flood test duck salad; type: in vivo, Heteranthera limosa
Procedure, shortened: as §2

[12] = test system: rape; assay: Test B pre/postemergence rape; type: in vivo, Brassica napus
Procedure, shortened: as §1

[13] = test system: pigweed; assay: Test B pre/postemergence pigweed; type: in vivo, Amaranthus retroflexus
Procedure, shortened: as §1

[14] = test system: bedstraw; assay: Test B pre/postemergence bedstraw; type: in vivo, Galium aparine
Procedure, shortened: as §1

[15] = test system: bamyardgrass; assay: Test B flood test barnyardgrass; type: in vivo, Echinochloa crus-galli
Procedure, shortened: as §2

[16] = test system: cocklebur; assay: Test B pre/postemergence cocklebur; type: in vivo, Xanthium strumarium
Procedure, shortened: as §1

[17] = Postemergence, Rate 62 g/ha, scale of 0 to 10, 0 is no effect, 10 is complete control
[18] = Postemergence, Rate 500 g/ha, scale of 0 to 10 where 0 is no effect and 10 is complete control
[19] = Preemergence, Rate 62 g/ha, scale 0 to 10 (0 no effect, 10 complete control)
[20] = Preemergence, Rate 125 g/ha, scale 0 to 10, 0 is no effect, 10 is complete control
[21] = Preemergence, Rate 500 g/ha, scale of 0 to 10 where 0 is no effect and 10 is complete control
[22] = Rate 250 g/ha, Postemergence, scale of 0 to 10 where 0 is no effect and 10 is complete control
[23] = Postemergence, Rate 125 g/ha, scale 0 to 10, 0 is no effect, 10 is complete control
[24] = Rate 62 g/ha, flood test species, Pre-emergence, visual evaluation after twelve to sixteen days
[25] = Rate 125 g/ha, under heading Pre-emergence, flood test species, visual evaluation after twelve to sixteen days
[26] = Rate 250 g/ha, Pre-emergence (flood test species), scale 0 to 10, 0 is no effect, 10 is complete control
[27] = Rate 500 g/ha, Pre-emergence section of Table B, 0 to 10 scale (0 no effect, 10 complete control)

CCCCCCn1c(=O)on(C(=O)N(c2ccccc2)C(C)C)c1=O [Compound 558]
3: Soybean plant response rating [1, 17] | Plant response rating, B. signalgrass [7, 18] | B. signalgrass plant response rating (0 to 10 scale, 0 is no effect, 10 is complete control) ([7]; Preemergence, Rate 250 g/ha)
5: Plant response rating, Giant foxtail [10, 22]
0: Soybean plant response rating [1, 19] | Soybean plant response rating [1, 20] | Soybean plant response rating (0 to 10 scale) ([1]; Preemergence, Rate 250 g/ha) | Soybean plant response rating [1, 21] | Wheat plant response rating [2, 17] | Plant response rating, Wheat [2, 18] | Wheat plant response rating [2, 19] | Wheat plant response rating [2, 20] | Wheat plant response rating (0 to 10 scale) ([2]; Preemergence, Rate 250 g/ha) | Plant response rating, Wheat [2, 22] | Morningglory plant response rating [3, 19] | Morningglory plant response rating [3, 20] | Morningglory plant response rating (0 to 10 scale) ([3]; Preemergence, Rate 250 g/ha) | Morningglory plant response rating [3, 21] | Blackgrass plant response rating [4, 17] | Blackgrass plant response rating [4, 23] | Nutsedge plant response rating [5, 17] | Nutsedge plant response rating [5, 23] | Plant response rating, Nutsedge [5, 18] | Nutsedge plant response rating [5, 19] | Nutsedge plant response rating [5, 20] | Nutsedge plant response rating (0 to 10 scale) ([5]; Preemergence, Rate 250 g/ha) | Nutsedge plant response rating [5, 21] | Plant response rating, Nutsedge [5, 22] | Velvetleaf plant response rating [6, 17] | Velvetleaf plant response rating [6, 19] | Velvetleaf plant response rating [6, 20] | Velvetleaf plant response rating (0 to 10 scale) ([6]; Preemergence, Rate 250 g/ha) | Velvetleaf plant response rating [6, 21] | Plant response rating, Velvetleaf [6, 22] | B. signalgrass plant response rating [7, 17] | B. signalgrass plant response rating [7, 19] | B. signalgrass plant response rating [7, 20] | Plant response rating, B. signalgrass [7, 22] | Plant response rating, S. Flatsedge (0 to 10 scale, 0 is no effect, 10 is complete control) [8, 24] | S. Flatsedge plant response rating (0 to 10 scale, 0 is no effect, 10 is complete control) [8, 25] | S. Flatsedge plant response rating [8, 26] | S. Flatsedge plant response rating [8, 27] | Wild oats plant response rating [9, 17] | Plant response rating, Wild oats [9, 18] | Wild oats plant response rating [9, 19] | Wild oats plant response rating [9, 20] | Wild oats plant response rating (0 to 10 scale) ([9]; Preemergence, Rate 250 g/ha) | Plant response rating, Wild oats [9, 22] | Plant response rating, Ducksalad (0 to 10 scale, 0 is no effect, 10 is complete control) [11, 24] | Ducksalad plant response rating (0 to 10 scale, 0 is no effect, 10 is complete control) [11, 25] | Ducksalad plant response rating [11, 26] | Ducksalad plant response rating [11, 27] | Rape plant response rating [12, 17] | Rape plant response rating [12, 23] | Rape plant response rating [12, 19] | Rape plant response rating [12, 20] | Plant response rating, Rape [12, 22] | Redroot pigweed plant response rating [13, 17] | Plant response rating, Redroot pigweed [13, 18] | Redroot pigweed plant response rating [13, 19] | Redroot pigweed plant response rating [13, 20] | Plant response rating, Redroot pigweed [13, 22] | Bedstraw plant response rating [14, 23] | Bedstraw plant response rating [14, 19] | Bedstraw plant response rating [14, 20] | Bedstraw plant response rating (0 to 10 scale) ([14]; Preemergence, Rate 250 g/ha) | Bedstraw plant response rating [14, 21] | Plant response rating, Bedstraw [14, 22] | Plant response rating, Barnyardgrass (0 to 10 scale, 0 is no effect, 10 is complete control) [15, 24] | Barnyardgrass plant response rating (0 to 10 scale, 0 is no effect, 10 is complete control) [15, 25] | Cocklebur plant response rating [16, 17] | Cocklebur plant response rating [16, 23] | Plant response rating, Cocklebur [16, 18] | Cocklebur plant response rating [16, 19] | Cocklebur plant response rating [16, 20] | Cocklebur plant response rating (0 to 10 scale) ([16]; Preemergence, Rate 250 g/ha) | Cocklebur plant response rating [16, 21] | Plant response rating, Cocklebur [16, 22]
4: Plant response rating, Soybean [1, 18] | Plant response rating, Soybean [1, 22]
6: Blackgrass plant response rating (0 to 10 scale) ([4]; Preemergence, Rate 250 g/ha) | B. signalgrass plant response rating [7, 21] | Barnyardgrass plant response rating [15, 27]
2: Wheat plant response rating [2, 21] | Plant response rating, Blackgrass [4, 18] | Blackgrass plant response rating [4, 19] | Blackgrass plant response rating [4, 20] | Plant response rating, Blackgrass [4, 22] | Plant response rating, Velvetleaf [6, 18] | Wild oats plant response rating [9, 21] | Giant foxtail plant response rating [10, 17] | Giant foxtail plant response rating [10, 23] | Plant response rating, Rape [12, 18] | Rape plant response rating (0 to 10 scale) ([12]; Preemergence, Rate 250 g/ha) | Rape plant response rating [12, 21] | Redroot pigweed plant response rating (0 to 10 scale) ([13]; Preemergence, Rate 250 g/ha) | Redroot pigweed plant response rating [13, 21] | Barnyardgrass plant response rating [15, 26]
9: Blackgrass plant response rating [4, 21] | Giant foxtail plant response rating [10, 20] | Giant foxtail plant response rating (0 to 10 scale) ([10]; Preemergence, Rate 250 g/ha)
8: Plant response rating, Giant foxtail [10, 18] | Giant foxtail plant response rating [10, 19]
10: Morningglory plant response rating [3, 17] | Morningglory plant response rating [3, 23] | Plant response rating, Morningglory [3, 18] | Plant response rating, Morningglory [3, 22] | Giant foxtail plant response rating [10, 21]
